Like-named read-outs stand apart in the source and are kept apart here.
How the values were obtained:
Format in all cases: biochemical
JAK3 = JAK3 (Homo sapiens (Human), UniProt P52333); assay: JAK Caliper Enzyme Assay at 1 mM ATP, JAK3
Summary of the method: (§1)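 Recombinant human kinase domains phosphorylate a fluorescent synthetic peptide at 1 mM ATP, room temperature, with enzyme and time tuned for 20-30% conversion; EDTA-stopped. Product/substrate separated by microfluidic mobility shift; percent effect versus DMSO and positive controls fitted to IC50 (nM).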

TYK2 = TYK2 (Homo sapiens (Human), UniProt P29597); assay: JAK Caliper Enzyme Assay at 1 mM ATP, TYK2
Summary of the method: (§2)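 Read-out is Caliper LabChip mobility-shift separation of phosphorylated from unphosphorylated fluorescent peptide after EDTA termination. Each JAK kinase domain (human, recombinant) runs at 1 mM ATP at room temperature, adjusted for 20–30% turnover. Inhibition is normalized to DMSO and positive-control wells and plotted against concentration.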

JAK2 = JAK2 (Homo sapiens (Human), UniProt O60674); assay: JAK Caliper Enzyme Assay at 1 mM ATP, JAK2
Summary of the method: as §2

JAK1 = JAK1 (Homo sapiens (Human), UniProt P23458); assay: JAK Caliper Enzyme Assay at 1 mM ATP, JAK1
Summary of the method: as §1

Sequence of JAK1 (P23458 875-1153): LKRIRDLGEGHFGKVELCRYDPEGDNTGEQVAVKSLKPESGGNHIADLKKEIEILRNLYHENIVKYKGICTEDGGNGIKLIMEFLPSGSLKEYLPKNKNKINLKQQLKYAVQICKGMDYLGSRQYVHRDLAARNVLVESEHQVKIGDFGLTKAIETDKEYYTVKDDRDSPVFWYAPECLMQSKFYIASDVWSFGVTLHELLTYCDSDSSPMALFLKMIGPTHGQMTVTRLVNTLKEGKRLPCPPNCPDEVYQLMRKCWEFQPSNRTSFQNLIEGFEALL
Sequence of JAK2 (O60674 849-1124): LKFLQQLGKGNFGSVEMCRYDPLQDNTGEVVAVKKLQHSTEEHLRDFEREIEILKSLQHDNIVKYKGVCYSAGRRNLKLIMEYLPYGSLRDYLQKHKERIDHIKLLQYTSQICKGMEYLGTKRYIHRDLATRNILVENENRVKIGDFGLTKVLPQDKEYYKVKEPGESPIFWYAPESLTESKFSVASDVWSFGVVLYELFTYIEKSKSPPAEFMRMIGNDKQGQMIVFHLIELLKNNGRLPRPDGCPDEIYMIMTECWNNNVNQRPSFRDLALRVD
Sequence of JAK3 (P52333 822-1111): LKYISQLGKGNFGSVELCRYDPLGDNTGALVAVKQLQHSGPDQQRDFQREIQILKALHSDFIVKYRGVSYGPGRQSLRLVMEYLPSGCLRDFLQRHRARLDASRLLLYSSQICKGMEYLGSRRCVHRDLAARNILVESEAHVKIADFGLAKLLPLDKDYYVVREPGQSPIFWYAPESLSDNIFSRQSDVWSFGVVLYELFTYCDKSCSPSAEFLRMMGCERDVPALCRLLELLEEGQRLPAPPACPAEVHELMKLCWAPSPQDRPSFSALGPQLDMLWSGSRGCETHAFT
Sequence of TYK2 (P29597 897-1176): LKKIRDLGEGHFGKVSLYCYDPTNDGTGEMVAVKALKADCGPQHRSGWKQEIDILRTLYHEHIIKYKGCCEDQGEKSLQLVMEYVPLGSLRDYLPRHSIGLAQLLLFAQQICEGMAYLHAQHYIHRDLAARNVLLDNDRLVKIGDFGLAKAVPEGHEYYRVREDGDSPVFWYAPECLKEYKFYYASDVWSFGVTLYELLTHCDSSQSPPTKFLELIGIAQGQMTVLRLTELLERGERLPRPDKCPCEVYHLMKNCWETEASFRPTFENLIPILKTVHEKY

| IC50 (JAK3; JAK Caliper enzyme assay) [µM] | IC50 (TYK2; JAK Caliper enzyme assay) [µM] | IC50 (JAK2; JAK Caliper enzyme assay) [µM] | IC50 (JAK1; JAK Caliper enzyme assay) [µM] | SMILES | IC50 (JAK3) [µM] | IC50 (TYK2) [µM] | IC50 (JAK2) [µM] | IC50 (JAK1) [µM] |
| --- | --- | --- | --- | --- | --- | --- | --- | --- |
|  |  |  |  | N#CC[C@]1(n2ncc(-c3cc(-c4cccc(C(=O)O)n4)cc4ncccc34)n2)C[C@@H](C#N)C1 [Example 371, 6-(5-{2-[trans-3-cyano-1-(cyanomethyl)cyclobutyl]-2H-1,2,3-triazol-4-yl}quinolin-7-yl)pyridine-2-carboxylic acid] | > 10 | 0.11 | 1.61 | 9.28 |
| 5.97 | 0.021 | 0.08 | 0.6 | CS(=O)(=O)Nc1cccc(-c2cc(-c3cnn(C4(CC#N)CC(C#N)C4)n3)c3cccnc3c2)n1 (stereo not drawn) [Example 372, N-[6-(5-{2-[cis-3-cyano-1-(cyanomethyl)cyclobutyl]-2H-1,2,3-triazol-4-yl}quinolin-7-yl)pyridin-2-yl]methanesulfonamide] |  |  |  |  |
| > 10 | 0.069 | 0.411 | 4.07 | CS(=O)(=O)Nc1cccc(-c2cc(-c3cnn(C4(CC#N)CC(C#N)C4)n3)c3cccnc3c2)n1 (stereo not drawn) [Example 373, N-[6-(5-{2-[trans-3-cyano-1-(cyanomethyl)cyclobutyl]-2H-1,2,3-triazol-4-yl}quinolin-7-yl)pyridin-2-yl]methanesulfonamide] |  |  |  |  |
| 2.89 | 0.009 | 0.025 | 0.053 | CS(=O)(=O)Nc1ccc(-c2cc(-c3cnn(C4(CC#N)CC(C#N)C4)n3)c3cccnc3c2)nc1 (stereo not drawn) [Example 374, N-[6-(5-{2-[cis-3-cyano-1-(cyanomethyl)cyclobutyl]-2H-1,2,3-triazol-4-yl}quinolin-7-yl)pyridin-3-yl]methanesulfonamide] |  |  |  |  |
| > 10 | 0.03 | 0.148 | 0.452 | CS(=O)(=O)Nc1ccc(-c2cc(-c3cnn(C4(CC#N)CC(C#N)C4)n3)c3cccnc3c2)nc1 (stereo not drawn) [Example 375, N-[6-(5-{2-[trans-3-cyano-1-(cyanomethyl)cyclobutyl]-2H-1,2,3-triazol-4-yl}quinolin-7-yl)pyridin-3-yl]methanesulfonamide] |  |  |  |  |
| 9.48 | 0.036 | 0.155 | 0.593 | CC(=O)Nc1cccc(-c2cc(-c3cnn([C@]4(CC#N)C[C@@H](C#N)C4)n3)c3cccnc3c2)n1 [Example 376, N-[6-(5-{2-[trans-3-cyano-1-(cyanomethyl)cyclobutyl]-2H-1,2,3-triazol-4-yl}quinolin-7-yl)pyridin-2-yl]acetamide] |  |  |  |  |
| 1.35 | 0.014 | 0.033 | 0.073 | CC(=O)Nc1cccc(-c2cc(-c3cnn(C4(CC#N)CC(C#N)C4)n3)c3cccnc3c2)n1 (stereo not drawn) [Example 377, N-[6-(5-{2-[cis-3-cyano-1-(cyanomethyl)cyclobutyl]-2H-1,2,3-triazol-4-yl}quinolin-7-yl)pyridin-2-yl]acetamide] |  |  |  |  |
| 9.5 | 0.035 | 0.093 | 0.575 | Cc1nc(-c2cc(-c3cnn([C@]4(CC#N)C[C@H](C#N)C4)n3)c3cccnc3c2)ccc1CCO [Example 378, cis-3-(cyanomethyl)-3-(4-{7-[5-(2-hydroxyethyl)-6-methylpyridin-2-yl]quinolin-5-yl}-2H-1,2,3-triazol-2-yl)cyclobutanecarbonitrile] |  |  |  |  |
| > 10 | 0.123 | 0.54 | 4.37 | Cc1nc(-c2cc(-c3cnn([C@]4(CC#N)C[C@@H](C#N)C4)n3)c3cccnc3c2)ccc1CCO [Example 379, trans-3-(cyanomethyl)-3-(4-{7-[5-(2-hydroxyethyl)-6-methylpyridin-2-yl]quinolin-5-yl}-2H-1,2,3-triazol-2-yl)cyclobutanecarbonitrile] |  |  |  |  |
| > 10 | 0.194 | 0.811 | 9.39 | N#CC[C@]1(n2ncc(-c3cc(-c4cc5c(cn4)CCN5)cc4ncccc34)n2)C[C@@H](C#N)C1 [Example 380, cis-3-(cyanomethyl)-3-{4-[7-(2,3-dihydro-1H-pyrrolo[3,2-c]pyridin-6-yl)quinolin-5-yl]-2H-1,2,3-triazol-2-yl}cyclobutanecarbonitrile] |  |  |  |  |
| > 10 | 0.03 | 0.138 | 0.432 | Cc1nc(-c2cc(-c3cnn([C@]4(CC#N)C[C@H](C#N)C4)n3)c3cccnc3c2)ccc1O [Example 381, cis-3-(cyanomethyl)-3-{4-[7-(5-hydroxy-6-methylpyridin-2-yl)quinolin-5-yl]-2H-1,2,3-triazol-2-yl}cyclobutanecarbonitrile] |  |  |  |  |
| > 10 | 0.141 | 1.02 | 3.06 | Cc1nc(-c2cc(-c3cnn([C@]4(CC#N)C[C@@H](C#N)C4)n3)c3cccnc3c2)ccc1O [Example 382, trans-3-(cyanomethyl)-3-{4-[7-(5-hydroxy-6-methylpyridin-2-yl)quinolin-5-yl]-2H-1,2,3-triazol-2-yl}cyclobutanecarbonitrile] |  |  |  |  |
| 4.25 | 0.007 | 0.035 | 0.059 | COc1nc(-c2cc(-c3cnn([C@]4(CC#N)C[C@H](C#N)C4)n3)c3cccnc3c2)ccc1N [Example 383, cis-3-{4-[7-(5-amino-6-methoxypyridin-2-yl)quinolin-5-yl]-2H-1,2,3-triazol-2-yl}-3-(cyanomethyl)cyclobutanecarbonitrile] |  |  |  |  |
| > 10 | 0.033 | 0.256 | 0.769 | COc1nc(-c2cc(-c3cnn([C@]4(CC#N)C[C@@H](C#N)C4)n3)c3cccnc3c2)ccc1N [Example 384, trans-3-{4-[7-(5-amino-6-methontpyridin-2-yl)quinolin-5-yl]-2H-1,2,3-triazol-2-yl}-3-(cyanomethyl)cyclobutanecarbonitrile] |  |  |  |  |
| > 10 | 0.984 | 6.79 | 6.27 | N#CC[C@]1(n2ncc(-c3cc(-c4cc(C(N)=O)c(F)cn4)cc4ncccc34)n2)C[C@H](C#N)C1 [Example 385, 2-(5-{2-[cis-3-cyano-1-(cyanomethyl)cyclobutyl]-2H-1,2,3-triazol-4-yl}quinolin-7-yl)5-fluoropyridine-4-carboxamide] |  |  |  |  |
| > 10 | 3.76 | > 10 | > 10 | N#CC[C@]1(n2ncc(-c3cc(-c4cc(C(N)=O)c(F)cn4)cc4ncccc34)n2)C[C@@H](C#N)C1 [Example 386, 2-(5-{2-[trans-3-cyano-1-(cyanomethyl)cyclobutyl]-2H-1,2,3-triazol-4-yl}quinolin-7-yl)-5-fluoropyridine-4-carboxamide] |  |  |  |  |
| > 10 | 4.84 | > 10 | > 10 | N#CC[C@]1(n2ncc(-c3cc(-c4cc(O)ncc4F)cc4ncccc34)n2)C[C@@H](C#N)C1 [Example 387, cis-3-(cyanomethyl)-3-{4-[7-(5-fluoro-2-hydroxpyridin-4-yl)quinolin-5-yl]-2H-1,2,3-triazol-2-yl}cyclobutanecarbonitrile] |  |  |  |  |
| > 10 | 1.78 | 6.88 | > 10 | Cc1cc(-c2cc(-c3cnn(C4(CC#N)CN(S(C)(=O)=O)C4)n3)c3cccnc3c2)cnc1N [Example 388, [3-{4-[7-(6-amino-5-methylpyridin-3-yl)quinolin-5-yl]-2H-1,2,3-triazol-2-yl}-1-(methylsulfonyl)azetidin-3-yl]acetonitrile] |  |  |  |  |
| > 10 | 5.04 | > 10 | > 10 | CS(=O)(=O)N1CC(CC#N)(n2ncc(-c3cc(-c4cncnc4)cc4ncccc34)n2)C1 [Example 389, [1-(methylsulfonyl)-3-{4-[7-(pyrimidin-5-yl)quinolin-5-yl]-2H-1,2,3-triazol-2-yl}azetidin-3-yl]acetonitrile] |  |  |  |  |
| > 10 | 1.28 | > 10 | > 10 | N#CCC1(n2ncc(-c3cc(-c4ncccn4)cc4ncccc34)n2)CC(C#N)C1 (stereo not drawn) [Example 390, trans-3-(cyanomethyl)-3-{4-[7-(pyrimidin-2-yl)quinolin-5-yl]-2H-1,2,3-triazol-2-yl}cyclobutanecarbonitrile] |  |  |  |  |
| > 10 | 2.84 | 9.84 | > 10 | N#CC[C@]1(n2ncc(-c3cc(-c4cncnc4)cc4ncccc34)n2)C[C@@H](C#N)C1 [Example 391, cis-3-(cyanomethyl)-3-{4-[7-(pyrimidin-5-yl)quinolin-5-yl]-2H-1,2,3-triazol-2-yl}cyclobutanecarbonitrile] |  |  |  |  |
| > 10 | 0.66 | 3.05 | 7.11 | N#CC[C@]1(n2ncc(-c3cc(-c4cnccn4)cc4ncccc34)n2)C[C@@H](C#N)C1 [Example 392, cis-3-(cyanomethyl)-3-{4-[7-(pyrazin-2-yl)quinolin-5-yl]-2H-1,2,3-triazol-2-yl}cyclobutanecarbonitrile] |  |  |  |  |
| > 10 | 3.47 | > 10 | > 10 | CS(=O)(=O)N1CC(CC#N)(n2ncc(-c3cc(-c4cnc(N)nc4)cc4ncccc34)n2)C1 [Example 393, [3-{4-[7-(2-aminopyrimidin-5-yl)quinolin-5-yl]-2H-1,2,3-triazol-2-yl}-1-(methylsulfonyl)azetidin-3-yl]acetonitrile] |  |  |  |  |
| > 10 | 0.078 | 0.774 | 6.35 | N#CC[C@]1(n2ncc(-c3cc(-c4cc(N)ncn4)cc4ncccc34)n2)C[C@@H](C#N)C1 [Example 395, cis-3-{4-[7-(6-aminopyrimidin-4-yl)quinolin-5-yl]-2H-1,2,3-triazol-2-yl}-3-(cyanomethyl)cyclobutanecarbonitrile] |  |  |  |  |

From patent publication US11254668B2, “Pyrazolo[1,5-A]pyrazin-4-yl and related derivatives” (Pfizer Inc., priority 2017, dated 2022)
